Data from ChEMBL document CHEMBL4483862, “Open-source discovery of chemical leads for next-generation chemoprotective antimalarials” (2018).

Tested on: Plasmodium berghei
Test: Luciferase/luciferin-expressing antifolate-resistant parasites were used to infect a culture of HepG2 cells that were pre-incubated with compounds. Infected hepatocytes emit light due to the luciferase reaction. Assay results are presented as the percent inhibition of light emission compared to control. […]
Type: functional
Settings: sporozoite; for IC90: read-out: LUCIFERASE INFECTION ASSAY - IC90

SMILES | IC90 [µM] | further results
O=c1c(Cl)c(Cl)cnn1Cc1nnc(-c2ccc(Cl)cc2)o1 | > 10 | IC50 (FFLUC_HILL_SLOPE 3.65, FFLUC_R_SQUARED 0.9, HEPG2TOX_HILL_SLOPE 4.48, HEPG2TOX_R_SQUARED 0.522, PBLUC_HILL_SLOPE 7.32, PBLUC_R_SQUARED 0.182, read-out: LUCIFERASE INFECTION ASSAY - IC50): 7.44 µM
CCCS(=O)(=O)c1cnc(C2COc3ccccc3O2)nc1N (stereo not given) | 1.07 | IC50 (FFLUC_HILL_SLOPE 3.81, FFLUC_R_SQUARED 0.729, PBLUC_HILL_SLOPE 0.615, PBLUC_R_SQUARED 0.774, read-out: LUCIFERASE INFECTION ASSAY - IC50): 0.0301 µM
COc1ccc(CN2C(=O)c3ccccc3C(/C=N\OCc3ccc(F)cc3)C2=O)cc1 (stereo not given) | > 7.63 | IC50 (FFLUC_HILL_SLOPE 3.53, FFLUC_R_SQUARED 0.589, read-out: LUCIFERASE INFECTION ASSAY - IC50): > 7.63 µM
COC(=O)c1ccc(CSc2nnc(NC(=O)c3ccccc3[N+](=O)[O-])s2)cc1 | 0.0537 | IC50 (FFLUC_HILL_SLOPE 3.72, FFLUC_R_SQUARED 0.492, PBLUC_HILL_SLOPE 2.08, PBLUC_R_SQUARED 0.667, read-out: LUCIFERASE INFECTION ASSAY - IC50): 0.0187 µM
Cc1cc(-n2c(C)cc(C(=O)Cn3ncc(Cl)c(Cl)c3=O)c2C)ccc1Br | 5.84 | IC50 (FFLUC_HILL_SLOPE 3.61, FFLUC_R_SQUARED 0.511, HEPG2TOX_HILL_SLOPE 4.93, HEPG2TOX_R_SQUARED 0.864, PBLUC_HILL_SLOPE 65.8, PBLUC_R_SQUARED 0.0361, read-out: LUCIFERASE INFECTION ASSAY - IC50): 5.65 µM
COC(=O)c1c(NC(=O)c2ccoc2)c2cc(NCC3CC=CCC3)cnc2n1CC(C)C (stereo not given) | > 7.32 | IC50 (FFLUC_HILL_SLOPE 3.67, FFLUC_R_SQUARED 0.106, read-out: LUCIFERASE INFECTION ASSAY - IC50): > 7.32 µM
Cc1cc(C2=NNC(=CN3CCc4sccc4C3c3cccs3)O2)c(C)o1 (stereo not given) | > 10 | IC50 (FFLUC_HILL_SLOPE 3.77, FFLUC_R_SQUARED 0.256, read-out: LUCIFERASE INFECTION ASSAY - IC50): > 10 µM
CNC(=O)c1ccc(CN(C2CC2)S(=O)(=O)c2cc([N+](=O)[O-])cc(C)c2C)cc1 | > 10 | IC50 (FFLUC_HILL_SLOPE 3.59, FFLUC_R_SQUARED 0.192, PBLUC_HILL_SLOPE 1.6, PBLUC_R_SQUARED 0.527, read-out: LUCIFERASE INFECTION ASSAY - IC50): 5.04 µM
Cc1cc(C)c(N2C(=O)C=CC2=O)c(C)c1 | 13.1 | IC50 (FFLUC_HILL_SLOPE 3.47, FFLUC_R_SQUARED 0.6, PBLUC_HILL_SLOPE 4.24, PBLUC_R_SQUARED 0.739, read-out: LUCIFERASE INFECTION ASSAY - IC50): 7.79 µM
O=C(Nc1ccc(Oc2ccc([N+](=O)[O-])c3cnccc23)cc1)c1ccccc1 | > 10 | IC50 (FFLUC_HILL_SLOPE 3.45, FFLUC_R_SQUARED 0.514, PBLUC_HILL_SLOPE 3.38, PBLUC_R_SQUARED 0.0773, read-out: LUCIFERASE INFECTION ASSAY - IC50): 7.36 µM
Cc1ccc(C(=O)NCc2nsc(=N/C(=N\c3ccccc3)c3ccccc3)n2Cc2ccccc2)cc1 | > 10 | IC50 (FFLUC_HILL_SLOPE 3.57, FFLUC_R_SQUARED 0.485, HEPG2TOX_HILL_SLOPE 6.57, HEPG2TOX_R_SQUARED 0.579, PBLUC_HILL_SLOPE 15.6, PBLUC_R_SQUARED 0.234, read-out: LUCIFERASE INFECTION ASSAY - IC50): 8.74 µM
CN(CC(=O)Nc1nc(C23CC4CC(CC(C4)C2)C3)cs1)S(=O)(=O)c1cccs1 | 3.45 | IC50 (FFLUC_HILL_SLOPE 3.68, FFLUC_R_SQUARED 0.43, PBLUC_HILL_SLOPE 112, PBLUC_R_SQUARED 0.327, read-out: LUCIFERASE INFECTION ASSAY - IC50): 3.38 µM
Cc1ccc2c(c1)/C(=N\NC(=O)c1nc(Cl)c(Cl)c(N)c1Cl)C(=O)N2 | > 10 | IC50 (FFLUC_HILL_SLOPE 3.8, FFLUC_R_SQUARED 0.785, read-out: LUCIFERASE INFECTION ASSAY - IC50): > 10 µM
Cc1ccc(-c2csc(NC(=O)C3CCN(c4ncnc5sc(C)c(C)c45)CC3)n2)cc1 | 1.74 | IC50 (FFLUC_HILL_SLOPE 3.71, FFLUC_R_SQUARED 0.648, HEPG2TOX_HILL_SLOPE 2.17, HEPG2TOX_R_SQUARED 0.62, PBLUC_HILL_SLOPE 8.52, PBLUC_R_SQUARED 0.61, read-out: LUCIFERASE INFECTION ASSAY - IC50): 1.35 µM
Cc1cccc(Cn2nc(C(C)(C)C)cc2C(=O)Nc2ccc(C(C)(C)C)cc2)c1 | > 8.18 | IC50 (FFLUC_HILL_SLOPE 3.48, FFLUC_R_SQUARED 0.696, read-out: LUCIFERASE INFECTION ASSAY - IC50): > 8.18 µM
O=C1COc2ccc(-c3cs/c(=N\CCc4ccccc4)n3/N=C/c3ccc4ncccc4c3)cc2N1 | > 10 | IC50 (FFLUC_HILL_SLOPE 3.55, FFLUC_R_SQUARED 0.719, HEPG2TOX_HILL_SLOPE 3.57, HEPG2TOX_R_SQUARED 0.945, read-out: LUCIFERASE INFECTION ASSAY - IC50): > 10 µM
COCCNc1ccnc2c(-c3ccccc3Oc3ccccc3)cnn12 | > 9.16 | IC50 (FFLUC_HILL_SLOPE 3.47, FFLUC_R_SQUARED 0.0365, PBLUC_HILL_SLOPE 0.975, PBLUC_R_SQUARED 0.706, read-out: LUCIFERASE INFECTION ASSAY - IC50): 3.91 µM
CCOc1ccc(NC(=S)N/N=C2/C(=O)Nc3c(Cl)cc(Cl)cc32)cc1 | 1.16 | IC50 (FFLUC_HILL_SLOPE 3.63, FFLUC_R_SQUARED 0.721, HEPG2TOX_HILL_SLOPE 1.01, HEPG2TOX_R_SQUARED 0.763, PBLUC_HILL_SLOPE 15.5, PBLUC_R_SQUARED 0.598, read-out: LUCIFERASE INFECTION ASSAY - IC50): 1 µM
Oc1c2n(c(=S)n1-c1ccc(Cl)cc1)CCS2 | > 11.6 | IC50 (FFLUC_HILL_SLOPE 3.58, FFLUC_R_SQUARED 0.45, PBLUC_HILL_SLOPE 7.55, PBLUC_R_SQUARED 0.0946, read-out: LUCIFERASE INFECTION ASSAY - IC50): 10.5 µM
O=C(c1oc2ccccc2c1CSc1ccc(Cl)cc1)N1CCCS/C1=N\c1ccccc1 | > 10 | IC50 (FFLUC_HILL_SLOPE 3.49, FFLUC_R_SQUARED 0.279, read-out: LUCIFERASE INFECTION ASSAY - IC50): > 10 µM
Cc1c(-c2ccccc2)oc2c(C(=O)NCc3ccc(Cn4cccn4)cc3)cccc2c1=O | > 10 | IC50 (FFLUC_HILL_SLOPE 3.81, FFLUC_R_SQUARED 0.0734, PBLUC_HILL_SLOPE 3.95, PBLUC_R_SQUARED 0.349, read-out: LUCIFERASE INFECTION ASSAY - IC50): 7.72 µM
Cc1ccc2oc(-c3ccc(C(C)(C)C)cc3)nc2c1 | 5.53 | IC50 (FFLUC_HILL_SLOPE 3.61, FFLUC_R_SQUARED 0.123, HEPG2TOX_HILL_SLOPE 7.09, HEPG2TOX_R_SQUARED 0.0328, PBLUC_HILL_SLOPE 0.728, PBLUC_R_SQUARED 0.843, read-out: LUCIFERASE INFECTION ASSAY - IC50): 0.271 µM
CSc1ccccc1N1C(=O)C=CC1=O | 10.8 | IC50 (FFLUC_HILL_SLOPE 3.57, FFLUC_R_SQUARED 0.584, HEPG2TOX_HILL_SLOPE 8.7, HEPG2TOX_R_SQUARED 0.127, PBLUC_HILL_SLOPE 6.46, PBLUC_R_SQUARED 0.572, read-out: LUCIFERASE INFECTION ASSAY - IC50): 7.7 µM
CCCn1c(SCC(=O)Nc2cc(S(=O)(=O)N(CC)c3ccccc3)ccc2Cl)nc2ccccc2c1=O | > 10 | IC50 (FFLUC_HILL_SLOPE 3.64, FFLUC_R_SQUARED 0.239, PBLUC_HILL_SLOPE 6.57, PBLUC_R_SQUARED 0.539, read-out: LUCIFERASE INFECTION ASSAY - IC50): 8.45 µM
CC(C)N1C(=O)/C(=N\NC(=S)NC2CCCCC2)c2ccccc21 | > 10 | IC50 (FFLUC_HILL_SLOPE 3.74, FFLUC_R_SQUARED 0.413, HEPG2TOX_HILL_SLOPE 6.6, HEPG2TOX_R_SQUARED 0.125, read-out: LUCIFERASE INFECTION ASSAY - IC50): > 10 µM
O=C(CNc1cc(C(F)(F)F)ccc1Oc1ccc(Br)cc1)NCCC1=CCCCC1 | > 10 | IC50 (FFLUC_HILL_SLOPE 3.47, FFLUC_R_SQUARED 0.173, PBLUC_HILL_SLOPE 15.8, PBLUC_R_SQUARED 0.057, read-out: LUCIFERASE INFECTION ASSAY - IC50): 9.79 µM
Cc1cc(C)c(C)c(S(=O)(=O)N2CCC(C(=O)Nc3cc(S(=O)(=O)Nc4ccc(Cl)cc4)ccc3N3CCOCC3)CC2)c1C | 3.69 | IC50 (FFLUC_HILL_SLOPE 3.74, FFLUC_R_SQUARED 0.802, PBLUC_HILL_SLOPE 15.7, PBLUC_R_SQUARED 0.403, read-out: LUCIFERASE INFECTION ASSAY - IC50): 3.21 µM
CCN(CC)S(=O)(=O)c1cc([N+](=O)[O-])ccc1NN=CC1C(=O)N(c2ccc(C)cc2)C(=O)c2ccccc21 (stereo not given) | > 10 | IC50 (FFLUC_HILL_SLOPE 3.56, FFLUC_R_SQUARED 0.6, HEPG2TOX_HILL_SLOPE 2.69, HEPG2TOX_R_SQUARED 0.936, PBLUC_HILL_SLOPE 15.5, PBLUC_R_SQUARED 0.0701, read-out: LUCIFERASE INFECTION ASSAY - IC50): 9.71 µM
O=C(/N=c1\sc(-c2ccccc2)c(-c2ccccc2)n1CCc1ccccc1)c1ccccc1 | > 10 | IC50 (FFLUC_HILL_SLOPE 3.75, FFLUC_R_SQUARED 0.66, PBLUC_HILL_SLOPE 10.4, PBLUC_R_SQUARED 0.195, read-out: LUCIFERASE INFECTION ASSAY - IC50): 8.64 µM
C=C(C)CSc1nc2cc(-c3ccc(C)cc3)sc2c(=O)n1Cc1ccccc1 | > 10 | IC50 (FFLUC_HILL_SLOPE 3.73, FFLUC_R_SQUARED 0.533, read-out: LUCIFERASE INFECTION ASSAY - IC50): > 10 µM
